Experimental data taken from ChEMBL document CHEMBL5131471, “Design, synthesis and mechanism studies of novel dual PARP1/BRD4 inhibitors against pancreatic cancer” (Eur J Med Chem, 2022).
Activity calls are given as the source filed them. The rule behind the calls is not given here.

Legend:
SW1990 [1] = experiment: Induction of apoptosis in human SW1990 cells assessed as necrotic cells at 4 uM measured after 4 days by Annexin V-FITC/propidium iodide staining based flow cytometry (reference value: 2.45%); assay type: functional; conditions: time 4 day
Mus musculus [2] = species: Mus musculus; conditions: dose 15.0 mg/kg, route ip, time 28.0 day
[3] = Toxicity in nude mouse xenografted with human SW1990 cells assessed as kidney damage at 15 mg/kg, ip administered for 28 days by H and E staining based fluorescence microscopic analysis; assay type: organism-based; conditions: in vivo, 672 h, time 28 day
SW1990 [4] = experiment: Induction of cell cycle arrest in human SW1990 cells assessed as accumulation of cells at S phase at 4 uM incubated for 4 days by propidium iodide staining based flow cytometry (reference value: 29.32%); assay type: functional; conditions: time 4 day
SW1990 [5] = experiment: Effect on BRCA2 gene expression in human SW1990 cells at 1 uM in presence of Olaparib by Q-PCR analysis; assay type: functional, cell-based
SW1990 [6] = experiment: Induction of cell cycle arrest in human SW1990 cells assessed as accumulation of cells at S phase at 1 uM incubated for 4 days in presence of 3 uM Olaparib by propidium iodide staining based flow cytometry (reference value: 29.32%); assay type: functional; conditions: time 4 day
[7] = Toxicity in nude mouse xenografted with human SW1990 cells assessed as spleen damage at 15 mg/kg, ip administered for 28 days by H and E staining based fluorescence microscopic analysis; assay type: organism-based; conditions: in vivo, 672 h, time 28 day
SW1990 [8] = experiment: Induction of cell cycle arrest in human SW1990 cells assessed as accumulation of cells at G0/G1 phase at 4 uM incubated for 4 days by propidium iodide staining based flow cytometry (reference value: 64.79%); assay type: functional; conditions: time 4 day
SW1990 [9] = experiment: Effect on CDC25B gene expression in human SW1990 cells at 4 uM by Q-PCR analysis; assay type: functional, cell-based
SW1990 [10] = experiment: Effect on TOPBP1 gene expression in human SW1990 cells at 4 uM by Q-PCR analysis; assay type: functional, cell-based
SW1990 [11] = experiment: Induction of cell cycle arrest in human SW1990 cells assessed as accumulation of cells at G2/M phase at 4 uM incubated for 4 days by propidium iodide staining based flow cytometry (reference value: 5.89%); assay type: functional; conditions: time 4 day
SW1990 [12] = experiment: Effect on ALDH1A1 gene expression in human SW1990 cells at 4 uM by Q-PCR analysis; assay type: functional, cell-based
SW1990 [13] = experiment: Effect on TOPBP1 gene expression in human SW1990 cells at 1 uM in presence of Olaparib by Q-PCR analysis; assay type: functional, cell-based
Mus musculus [14] = species: Mus musculus; conditions: dose 15.0 mg/kg, route ip, time 28.0 day; remark: listed apart in the source
Mus musculus [15] = experiment: Inhibition of BRD4 expression in nude mouse xenografted with human SW1900 cells at 30 mg/kg, ip administered for 28 days by DAPI staining based laser confocal microscopic analysis; assay type: functional, organism-based; conditions: time 28.0 day
SW1990 [16] = experiment: Induction of cell cycle arrest in human SW1990 cells assessed as accumulation of cells at G0/G1 phase at 2 uM incubated for 4 days by propidium iodide staining based flow cytometry (reference value: 64.79%); assay type: functional; conditions: time 4 day
Mus musculus [17] = experiment: Inhibition of homologous recombinant repair in nude mouse xenografted with human SW1990 cells assessed as reversal of olaparib-induced FOXM1 expression at 30 mg/kg, ip measured after 4 days by Western blot analysis; assay type: functional, organism-based; conditions: time 4.0 day
SW1990 [18] = experiment: Inhibition of homologous recombinant repair in human SW1990 cells assessed as reversal of Olaparib-induced FOXM1 expression at 1 to 2 uM after 4 days by Western blot analysis; assay type: functional, cell-based; conditions: dose 1-2 µM, time 4.0 day
SW1990 [19] = experiment: Induction of cell cycle arrest in human SW1990 cells assessed as accumulation of cells at G0/G1 phase at 1 uM incubated for 4 days by propidium iodide staining based flow cytometry (reference value: 64.79%); assay type: functional; conditions: time 4 day
Mus musculus [20] = experiment: Inhibition of CCND1 expression in nude mouse xenografted with human SW1990 cells at 30 mg/kg, ip measured after 4 days by Western blot analysis; assay type: functional, organism-based; conditions: time 4.0 day
SW1990 [21] = experiment: Effect on CCNB1 gene expression in human SW1990 cells at 1 to 2 uM by Q-PCR analysis; assay type: functional, cell-based; conditions: dose 1-2 µM
[22] = target: Bromodomain-containing protein 4 (Homo sapiens, UniProt O60885); experiment: Inhibition of BRD4-BD1/2 (unknown origin)
Mus musculus [23] = experiment: Inhibition of PARP1 expression in nude mouse xenografted with human […] cells at 30 mg/kg, ip administered for 28 days by Q-PCR analysis; assay type: functional, organism-based; conditions: time 28.0 day
Mus musculus [24] = experiment: Inhibition of homologous recombinant repair in nude mouse xenografted with human SW1990 cells assessed as reversal of olaparib-induced MDC1 expression at 30 mg/kg, ip measured after 4 days by Western blot analysis; assay type: functional, organism-based; conditions: time 4.0 day
SW1990 [25] = experiment: Effect on TOPBP1 gene expression in human SW1990 cells at 1 to 2 uM by Q-PCR analysis; assay type: functional, cell-based; conditions: dose 1-2 µM
SW1990 [26] = experiment: Induction of apoptosis in human SW1990 cells assessed as early apoptotic cells at 1 uM measured after 4 days by Annexin V-FITC and propidium iodide staining based flow cytometry (reference value: 1.62%); assay type: functional; conditions: time 4 day
SW1990 [27] = experiment: Downregulation of BRD4 expression in human SW1990 cells at 2 uM measured after 4 days by Western blot analysis; assay type: functional, cell-based; conditions: time 4.0 day
Mus musculus [28] = experiment: Inhibition of E2F2 expression in nude mouse xenografted with human SW1990 cells at 30 mg/kg, ip measured after 4 days by Western blot analysis; assay type: functional, organism-based; conditions: time 4.0 day
Mus musculus [29] = experiment: Inhibition of homologous recombinant repair in nude mouse xenografted with human SW1990 cells assessed as reversal of olaparib-induced FOXO1 expression at 30 mg/kg, ip measured after 4 days by Western blot analysis; assay type: functional, organism-based; conditions: time 4.0 day
Mus musculus [30] = experiment: Inhibition of CCNB1 expression in nude mouse xenografted with human SW1990 cells at 30 mg/kg, ip measured after 4 days by Western blot analysis; assay type: functional, organism-based; conditions: time 4.0 day
SW1990 [31] = experiment: Effect on CCNB1 gene expression in human SW1990 cells at 6 uM by Q-PCR analysis; assay type: functional, cell-based
SW1990 [32] = experiment: Effect on FOXO1 gene expression in human SW1990 cells at 6 uM by Q-PCR analysis; assay type: functional, cell-based
SW1990 [33] = experiment: Effect on CDK1 gene expression in human SW1990 cells at 6 uM by Q-PCR analysis; assay type: functional, cell-based
SW1990 [34] = experiment: Induction of apoptosis in human SW1990 cells assessed as late apoptotic cells at 6 uM measured after 4 days by Annexin V-FITC and propidium iodide staining based flow cytometry (reference value: 7.23%); assay type: functional; conditions: time 4 day
SW1990 [35] = experiment: Upregulation of CCND1 expression in human SW1990 cells at 6 uM measured after 4 days by Western blot analysis; assay type: functional, cell-based; conditions: time 4.0 day
Mus musculus [36] = experiment: Upregulation of E2F2 expression in nude mouse xenografted with human SW1990 cells at 45 mg/kg, ip measured after 4 days by Western blot analysis; assay type: functional, organism-based; conditions: time 4.0 day
SW1990 [37] = experiment: Upregulation of Rad51 expression in human SW1990 cells at 6 uM measured after 4 days by Western blot analysis; assay type: functional, cell-based; conditions: time 4.0 day
Mus musculus [38] = experiment: Upregulation of CDC25B expression in nude mouse xenografted with human SW1990 cells at 45 mg/kg, ip measured after 4 days by Western blot analysis; assay type: functional, organism-based; conditions: time 4.0 day
SW1990 [39] = experiment: Effect on CDC25A gene expression in human SW1990 cells at 6 uM by Q-PCR analysis; assay type: functional, cell-based

Cc1sc2c(c1C)C(c1ccc(Cl)cc1)=N[C@@H](CC(=O)OC(C)(C)C)c1nnc(C)n1-2
Activity (SW1990 [1]): 3.35%
inhibition (Mus musculus [2]): Active
Activity [3]: Non-Toxic
Activity (SW1990 [4]): 19.43%
Activity (SW1990 [5]): Active
Activity (SW1990 [6]): 19.33%
Activity [7]: Non-Toxic
Activity (SW1990 [8]): 75.06%
Activity (SW1990 [9]): Active
Activity (SW1990 [10]): Active
Activity (SW1990 [11]): 5.51%
Activity (SW1990 [12]): Active
Activity (SW1990 [13]): Active
inhibition (Mus musculus [14]): Active

Cc1noc(C)c1-c1ccc2c(c1)C(c1ccccc1)N(Cc1nc3c(C(N)=O)cccc3[nH]1)C(=O)N2C (centres undefined)
inhibition (Mus musculus [15]): Active
Activity (SW1990 [16]): 78.17%
inhibition (Mus musculus [17]): Active
inhibition (SW1990 [18]): Active
Activity (SW1990 [19]): 74.9%
inhibition (Mus musculus [20]): Active
Activity (SW1990 [21]): Active
IC50 [22]: 202 nM
inhibition (Mus musculus [23]): Active
inhibition (Mus musculus [24]): Active
Activity (SW1990 [25]): Active
Activity (SW1990 [26]): 3.02%
Activity (SW1990 [27]): Active
inhibition (Mus musculus [28]): Active
inhibition (Mus musculus [29]): Active
inhibition (Mus musculus [30]): Active

O=C(c1cc(Cc2n[nH]c(=O)c3ccccc23)ccc1F)N1CCN(C(=O)C2CC2)CC1 [OLAPARIB]
Activity (SW1990 [31]): Active
Activity (SW1990 [32]): Active
Activity (SW1990 [33]): Active
Activity (SW1990 [34]): 22.9%
Activity (SW1990 [35]): Active
Activity (Mus musculus [36]): Active
Activity (SW1990 [37]): Active
Activity (Mus musculus [38]): Active
Activity (SW1990 [39]): Active
